Experimental data as given in US4678788A, “N-substituted 2-chloro-7-fluoro-10-piperazino-10,11-dihydrodibenzo (B,F) thiepins and acid addition salts thereof” (SPOFA, Spojene Podniky Pro Zdravotnickou Vyrobu, priority 1985, dated 1987).

Tests used:
[1] = system: apomorphine-elicited agitation and stereotypes in rats; test: Antiapomorphine action in rats; format: in vivo; settings: for effect on apomorphine-elicited agitation / effect on apomorphine-elicited stereotypes: 20 and 50 mg/kg, by 2 h after administration; for antiapomorphine effect: 50 mg/kg, oral
[2] = biological target: T1, dopamine receptors in corpus striatum (Rattus norvegicus, UniProt P61169); test: Inhibition of 3H-spiperone binding, corpus striatum
T1 construct: dopamine receptors in the two brain structures; from tissue; host or cells: rat brain, corpus striatum
T1 sequence (P61169 whole entry): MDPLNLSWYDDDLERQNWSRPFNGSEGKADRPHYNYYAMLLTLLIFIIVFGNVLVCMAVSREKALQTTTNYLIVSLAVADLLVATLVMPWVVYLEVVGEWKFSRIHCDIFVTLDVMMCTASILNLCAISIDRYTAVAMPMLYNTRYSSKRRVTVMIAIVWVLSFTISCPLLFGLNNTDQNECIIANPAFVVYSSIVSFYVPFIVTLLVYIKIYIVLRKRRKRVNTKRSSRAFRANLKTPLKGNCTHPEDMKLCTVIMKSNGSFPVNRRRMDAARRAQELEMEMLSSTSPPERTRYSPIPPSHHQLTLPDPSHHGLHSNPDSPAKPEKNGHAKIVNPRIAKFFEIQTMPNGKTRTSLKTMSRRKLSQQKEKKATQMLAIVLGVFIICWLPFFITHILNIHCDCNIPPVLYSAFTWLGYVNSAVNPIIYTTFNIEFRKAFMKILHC

rats = test: Cataleptic activity in rats; settings: for cataleptic activity: rats, 50 mg/kg, oral
[3] = system: spontaneous locomotor activity in mice; test: Inhibition of spontaneous locomotor activity in mice; format: in vivo; settings: for times less active than compound A, inhibition of spontaneous locomotor activity: mice, relative to compound A
[4] = Rota-rod test in mice (motor coordination); settings: mouse, po
[5] = system: homovanillic acid in corpus striatum; test: Homovanillic acid level in corpus striatum of the rat brain; format: in vivo
Solubility in water = format: physicochemical
mice = settings: mouse, in vivo, po
[6] = Rota-rod test in rats (motor coordination); settings: rat, po
[7] = system: dopamine levels in corpus striatum; test: Dopamine level in corpus striatum of the rat brain; format: in vivo; settings: for dopamine level, striatum: 20 mg/kg, in words
in vivo = settings: mouse, po
[8] = system: dopamine levels in tuberculum olfactorium; test: Dopamine level in tuberculum olfactorium of the rat brain; format: in vivo; settings: 20 mg/kg, in words
[9] = Acute toxicity in rats (oral); settings: rat, in vivo
[10] = system: apomorphine-induced climbing behavior of mice; test: Apomorphine-induced climbing behavior of mice; format: in vivo
[11] = system: homovanillic acid in tuberculum olfactorium; test: Homovanillic acid level in tuberculum olfactorium of the rat brain; format: in vivo; settings: 3 h after the administration
[12] = system: apomorphine emesis in dogs; test: Inhibition of apomorphine emesis in dogs; format: in vivo
[13] = Overall antidopaminergic / neuroleptic activity and pharmacological profile; settings: in words
[14] = system: cataleptogenic effect of perphenazine in rats; test: Potentiation of the cataleptogenic effect of perphenazine in rats; format: in vivo; settings: 50 mg/kg, oral
Experimental: A further compound of the invention is 1-(2-chloro-7-fluoro-10, 11-dihydrodibenzo (b,f) thiepin-10-yl)-4-(2-(1,3-dioxolan-2-yl)ethyl)piperazine, which also was tested as the methanesulfonate (compound B). This compound and the following ones were likewise administered orally, and the data is calculated per bases.
(§1) The invention further includes 1-(2-chloro-7-fluoro-10, 11-dihydrodibenzo (b,f) thiepin-10-yl)-4-(2-(1,3-dioxan-2-yl) ethyl)piperazine, which is also tested as the methanesulfonate (compound C).

[15] = Acute toxicity in mice, intravenous administration; settings: mouse, in vivo
Experimental: as §1

motility of mice = settings: Mus musculus, po, read-out: medium effective dose, motility of mice

| SMILES | effect on apomorphine-elicited agitation [1] | effect on apomorphine-elicited stereotypes [1] | cataleptic activity (rats) | TD50 [4] [mg/kg] | solubility in water (Solubility in water; monomethanesulfonate) | solubility in water (Solubility in water; neutral maleate) | dopamine level, striatum [7] | dopamine level, tuberculum olfactorium [8] | antiapomorphine effect [1] | increase of homovanillic acid level in striatum ([5]; rat, 80 mg/kg, 3 h, oral) | LD50 (in vivo; LD50, mice, per base) [mg/kg] | pharmacological profile compared with compound A [13] | potentiation of the cataleptogenic effect of perphenazine [14] | times less active than compound A, inhibition of spontaneous locomotor activity [3] | increase of homovanillic acid level in striatum ([5]; rat, 20 mg/kg, 3 h) [%] | other results |
| --- | --- | --- | --- | --- | --- | --- | --- | --- | --- | --- | --- | --- | --- | --- | --- | --- |
| NC(=O)CCN1CCN(C2Cc3cc(Cl)ccc3Sc3cc(F)ccc32)CC1 (stereo not shown) [Compound A] | significantly inhibits the agitation | does not affect the apomorphine-elicited stereotypes | lacks cataleptic activity | 2 | excellently water-soluble | poorly soluble in water | does not significantly affect the dopamine levels | does not significantly affect the dopamine levels | – | – | – | – | – | – | – | IC50 [2]: 0.0497 µM; cataleptic activity (general statement) (rats; compounds of the invention, in words): noncataleptic; ED50 ([3]; Mus musculus, po, read-out: medium active dose D50, inhibition of spontaneous locomotor activity): 1.05 mg/kg; minimal effective dose ([5]; Rattus norvegicus, po, 3 h, read-out: threshold dose significantly increasing homovanillic acid concentration, corpus striatum): 5 mg/kg; level of homovanillic acid, corpus striatum ([5]; rat, 3 h after the administration): intensively increases; LD50 on longer evaluation of the toxicity test (mice): lower LD50 values; TD50 [6]: 19.5 mg/kg; LD50 at 48 h (in vivo; LD50, female mice, per base): 316 mg/kg; LD50 at 48 h (in vivo; LD50, male mice, per base): 336 mg/kg; LD50 [9]: 654 mg/kg; ED50 ([10]; Mus musculus, po, read-out: medium effective dose PD50, apomorphine-induced climbing behavior): 2.9 mg/kg; level of homovanillic acid, tuberculum olfactorium [11]: intensively increases; minimal effective dose ([11]; oral, read-out: threshold dose significantly increasing homovanillic acid concentration, tuberculum olfactorium): 2 mg/kg; minimal effective dose ([12]; Canis lupus familiaris, oral, by 4 h after the administration, read-out: threshold activity dose, inhibition of apomorphine emesis): 2 mg/kg; inhibition of apomorphine emesis, duration ([12]; within 24 h): within 24 h the effect disappears |
| Fc1ccc2c(c1)Sc1ccc(Cl)cc1CC2N1CCN(CCC2OCCO2)CC1 (stereo not shown) [Compound B, 1-(2-chloro-7-fluoro-10, 11-dihydrodibenzo (b,f)thiepin-10-yl)-4-(2-(1,3-dioxolan-2-yl)ethyl)piperazine] | – | – | no cataleptic effect | 3.5 | readily water-soluble | slightly soluble in water | – | – | only a slight indication of antiapomorphine effect | 504% | 350 | approximately comparable | only mildly potentiates the cataleptogenic effect of perphenazine | – | – | solubility in water (Solubility in water; monomethanesulfonate, listed as Example 3): excellently water-soluble; solubility (Solubility in water; water, monomethanesulfonate, aqueous solution, read-out: concentration of aqueous solutions provided): > 100 mg/mL; lowering of dopamine level in striatum ([7]; 80 mg/kg, 3 h): 25% |
| CN1CCN(C2=Nc3cc(Cl)ccc3Nc3ccccc32)CC1 [clozapine, 8-chloro-11-(4-methylpiperazine)-5H-dibenzo (b,e)-(1,4)diazepine, reference compound] | effects neither agitation nor stereotypes | effects neither agitation nor stereotypes | behaves similarly | – | – | – | slightly decreases dopamine levels | slightly decreases dopamine levels | – | – | – | – | – | approx. 4 times | 200 | – |
| Fc1ccc2c(c1)Sc1ccc(Cl)cc1CC2N1CCN(CCC2OCCCO2)CC1 (stereo not shown) [Compound C, 1-(2-chloro-7-fluoro-10, 11-dihydrodibenzo (b,f)thiepin-10-yl)-4-(2-(1,3-dioxan-2-yl)ethyl)piperazine] | – | – | no cataleptic effect | 2.86 | excellently water-soluble | poorly soluble in water | the dopamine level is not affected | – | does not reveal any antiapomorphine effect | – | > 500 | approximately comparable | only mildly potentiates the cataleptogenic effect of perphenazine | – | 400 | affinity to dopamine receptors in striatum, release of 3H spiperone ([2]; striatum, in words, compared with clozapine): approximately the same as with clozapine; solubility in water (Solubility in water; neutral maleate, listed as Example 4): only very slightly soluble in water; LD50 [15]: 77.6 mg/kg |
| NC(CCN1CCN(C2Cc3cc(Cl)ccc3Sc3cc(F)ccc32)CC1)=NO (stereo not shown) [Compound D] | – | – | – | – | – | – | – | – | – | more than 300% | – | approximately comparable | – | – | – | LD50 (in vivo): 320 mg/kg; ED50 (motility of mice): 50 mg/kg |
| CN(C)CCCN1c2ccccc2Sc2ccc(Cl)cc21 [chlorpromazine, reference compound] | – | – | – | – | – | – | – | – | – | – | – | – | – | 5 times | – | activity relative to compound A, climbing behavior ([10]; mice, % of activity of compound A): approx. 50% |
